Patent EP0235823A2, “Carbapenem antibiotics, a process for preparing them and pharmaceutical compositions containing them” (Bristol-Myers Squibb Company, priority 1986, dated 1987)
Converted amounts (≈) assume the structure as drawn.

Experiments:
Type in all cases: cell-based
S.aureus A9537 = test: In vitro antibacterial activity, MIC by tube dilution; conditions: Staphylococcus aureus, Nutrient Broth, overnight incubation at 37 deg. C
Text: (§1) C by tube dilution. N-formimidoyl thienamycin was included as a comparison compound.

S.faecalis A20688 = test: as above; conditions: Enterococcus faecalis, Nutrient Broth, overnight incubation at 37 deg. C
Text: as §1

S.pneumoniae A9585 = test: as above; conditions: Streptococcus pneumoniae, Nutrient Broth, overnight incubation at 37 deg. C
Text: as §1

S.pyogenes A9604 = test: as above; conditions: Streptococcus pyogenes, Nutrient Broth, overnight incubation at 37 deg. C
Text: as §1

[1] = system: S.aureus + 50% serum A9537S; test: In vitro antibacterial activity, MIC by tube dilution, with 50% serum; conditions: Staphylococcus aureus, read-out: MIC (mcg/ml)
Text: as §1

Row | Structure (SMILES) | MIC (S.aureus A9537) [µg/mL] | MIC (S.faecalis A20688) [µg/mL] | MIC (S.pneumoniae A9585) [µg/mL] | MIC (S.pyogenes A9604) [µg/mL] | MIC [1] [µg/mL]
1 | CC(O)C1C(=O)N2C(C(=O)O)=C(SCCN=CN)CC12 (stereo not shown) [N-Formimidoy Thienamycin, N-formimidoyl thienamycin] | 0.004 (≈ 0.0134 µM) | 0.25 (≈ 0.835 µM) | 0.002 (≈ 0.00668 µM) | 0.002 (≈ 0.00668 µM) | 0.016 (≈ 0.0534 µM)
2 | C[C@@H](O)[C@H]1C(=O)N2C(C(=O)[O-])=C(SCC[N+]34CCN(CC3)CC4)[C@H](C)[C@H]12 [Ex. 7, (5R,6S) 3-[2-(1,4-diazabicyclo[2.2.2.]octanium-1-yl)ethylthio]-6-(1R-hydroxyethyl)-4R-methy3-7-oxo-1-azabicyclo[3.2.0]hept-2-ene-2-carboxylate] | 0.5 (≈ 1.31 µM) | 2 (≈ 5.24 µM) | 0.03 (≈ 0.0786 µM) | 0.03 (≈ 0.0786 µM) | 0.13 (≈ 0.341 µM)
